According to patent US20250281478A1, “METHODS FOR PREVENTING OR TREATING KIDNEY DISEASES” (JEAMOON BEIJING CO., LTD., priority 2022, published 2025):

Tests used:
[1] = tested on: mice with adenine-induced renal failure; assay: Survival of mice with adenine-induced renal failure; type: in vivo, C57BL/6N mice; settings: for Survival Rate (%): started 1 week after start of continued 0.25% adenine diet, end of experiment; for Count after Drug Administration (surviving mice): 12 at enrollment
Experimental: • 1. Experimental Animals: C57BL/6N, 8 weeks old, SPF grade, male. • 2. Experimental Drugs: • LY2922470 (Shanghai Taoshu Biotechnology Co., Ltd.) • TAK875 (Shanghai Taoshu Biotechnology Co., Ltd.)
1) Preparation of TAK875: A total of 27 mg of TAK875 powder was accurately weighed using an analytical balance and dissolved in 9 mL of 0.8% CMC-Na solution. The mixture was sonicated for 5 minutes to form a 3 mg/mL white suspension. The suspension was stored at 4° C. for later use.
2) Preparation of LY2922470: A total of 80 mg of LY2922470 yellow crystals was added to 200 μL of DMSO to form a clear yellow solution. The solution was gradually added in batches to 10 mL of 0.8% CMC-Na solution. After heating and sonication for 5 hours, an 8 mg/mL white suspension of LY2922470 was obtained. The suspension was stored at 4° C. for later use.
Eight-week-old male C57BL/6N mice were acclimatized for one week and then randomly divided into six groups. Except for the control group, all mice were fed a 0.25% adenine-containing diet for modelling. The control group received a normal diet. The mice had free access to food. One week after model induction, mice in each group were orally administered the corresponding drug once daily in the afternoon, according to their group assignment. The control group and the model group received vehicle under a same condition. During the treatment period, the adenine-containing diet was continued. Mouse survival was monitored until the end of the experiment.

[2] = tested on: mice with adenine-induced renal failure; assay: Renal fibrosis by Masson's trichrome staining in adenine-induced renal failure mice; type: in vivo, C57BL/6N mice; settings: LY2922470 30 mg/kg/day orally for 2 weeks; 3 weeks of modeling; FIG. 6
Experimental: Mice were modeled and administered drugs as described in Example 3. After two weeks of drug administration, the mice were euthanized, and their kidneys were fixed, sectioned, stained with Masson's trichrome, and analyzed.
Whole-slide scanning was performed using a fully automated digital pathology scanner KF-PRO-120 from Ningbo Jiangfeng Bioinformatics Technology Co., Ltd. Masson-stained images were analyzed using the Area Quantification module in HALO software. The blue staining of collagen fibers was used as the unified criterion for positivity. The images were analyzed, and the percentage of blue-stained collagen fibers in the tissue was calculated.
Statistical analysis was conducted using GraphPad Prism 8.0. Continuous data for each group were expressed as mean+SD. One-way ANOVA was used for multi-group comparisons, and Student's t-test was used for comparisons between two groups. A p-value<0.05 was considered statistically significant. For categorical data, chi-square tests were used for comparisons among groups, and a p-value<0.05 was considered statistically significant.

With `CC#C[C@@H](CC(=O)O)c1ccc(OCc2ccc(CN3CCCc4cccc(OC)c43)s2)cc1` [LY2922470] the “Survival Rate (%)” value ([1]; LY2922470 10 mg/kg p.o. QD) was 0%, the “Count after Drug Administration (surviving mice)” value (“Count after Drug Administration” below) ([1]; LY2922470 10 mg/kg p.o. QD) was 0 and the “Day of adenine feeding by which all mice had died” value ([1]; LY2922470 10 mg/kg p.o. QD, deaths began on day 20) was at most 27 days. For the same compound, the “Survival Rate (%)” value ([1]; LY2922470 30 mg/kg p.o. QD, 30 mg/kg) was 100%, the “Survival Rate (%)” value ([1]; LY2922470 30 mg/kg p.o. QD, listed as LY) was 100% and the “Count after Drug Administration” value ([1]; LY2922470 30 mg/kg p.o. QD) was 12. For the same compound, the “Final survival rate relative to the TAK875 group” value ([1]; LY2922470 30 mg/kg vs TAK875 30 mg/kg) was “double”, the “Survival Rate (%)” value ([1]; LY2922470 60 mg/kg p.o. QD, listed as LY) was 50% and the “Count after Drug Administration” value ([1]; LY2922470 60 mg/kg p.o. QD) was 6. The “Dose with optimal effect (survival)” value ([1]; from Table 1 survival data, p.o.) was 30 mg/kg/day, the “Collagen deposition (Masson staining)” value [2] was “decreased” and the “Degree of renal fibrosis (Masson staining)” value [2] was “alleviated”. For the same compound, the “Extracellular matrix (ECM) accumulation” value [2] was “inhibited”.
